Data reported in US20200347148A1, “METHODS FOR ENHANCING AND MAINTAINING CAR-T CELL EFFICACY” (Bellicum Pharmaceuticals, Inc., priority 2017, published 2020).
“Also recorded” adds a separate entry of the source.

Tests used:
[1] = Iuliucci J D, et al., J Clin Pharmacol. 2001; cited from earlier work
[2] = test system: iC9 (inducible caspase-9) safety switch; assay: Rimiducid activation of the iC9 safety switch in CAR-T-treated tumor-bearing NSG mice; format: in vivo
Protocol: Animal Models. To evaluate anti-tumor activity of CD19-targeted CAR-T cells, NSG mice were engrafted with 5×10^5 CD19^+ Raji or Raji-EGFPluc tumor cells by intravenous (i.v.) tail vein injection. After 4 days, variable doses of non-transduced and gene-modified T cells were administered by i.v. (tail) injection. In some experiments, mice were rechallenged with Raji-EGFPluc […] as above. To test CD123-specific CAR-T activity, 1×10^6 CD123^+ THP-1-EGFPluc were engrafted by i.v. injection, followed by infusion of 2.5×10^6 unmodified or CAR-T cells 7 days post-tumor engraftment. iC9 titration experiments were performed by treating Raji tumor-bearing mice with 5×10^6 iC9-CD19.ζ-MC-modified T cells followed by injection of rimiducid 7 days after T cell injection at 0.00005, 0.0005, 0.005, 0.05, 0.5 and 5 mg/kg. To evaluate cytokine-related toxicities, neutralizing antibodies against hIL-6, hIFN-γ and TNF-α or an isotype control antibody (Bio X Cell, West Lebanon, N.H.) were administered by i.p. injection with 100 ug twice weekly. Additional experiments were performed using positively selected CD4^+ and CD8+ iC9-CD19.ζ-MC-modified T cells using CD4 or CD8 microbeads and MACS columns (Miltenyi Biotec). In vivo tumor growth and T cell proliferation was measured by bioluminescence imaging (BLI) by i.p. injection of 150 mg/kg D-luciferin (Perkin Elmer, Waltham, Mass.) and imaged using the IVIS imaging system (Perkin Elmer). Photon emission was analyzed by whole body region-of-interest (ROI) and signal measured as average radiance (photons/second/cm2/steradian).
While administration of high dose rimiducid (5 mg/kg) allowed the persistence of low level CAR-T cells, titration of rimiducid may permit the retention of more gene-modified T cells while mitigating cytokine-related toxicities. T cells were co-transduced with iC9-CD19.ζ-MC and EGFPluc and administered into Raji-bearing mice. Following the onset of cachexia (>10% body weight loss), a log-titration of rimiducid (5-5×10^−5 mg/kg) was administered as a single i.p. injection (FIG. 6A).
To further study cachexia associated with administration of iC9-CAR.-MC-modified T cells, the CD19-redirected construct was assayed against CD19^+ Daudi tumors in vivo, and neutralizing antibodies targeting human IL-6, IFN-γ and TNF-α, all of which are cross-reactive with murine cytokine receptors, were administered, and followed by monitoring of mouse weight loss. Here, tumor-bearing mice were treated with 5×10^6 iC9-CD19.ζ-MC transduced T cells and following >10% weight loss, intervention with either a single i.p. dose of rimiducid (0.5 mg/kg) or vehicle, or twice weekly injections of 100 ug per mouse anti-hIFN-γ, hIL-6 or hTNF-α was initiated (FIG. 9A). […] 5×10^6 iC9-CD19.ζ-MC-modified T cells were injected in to Daudi-bearing NSG mice and then treated with 0.5 mg/kg rimiducid after >10% weight loss or with i.p. injections with […] twice per week with an isotype antibody (control) or with neutralizing antibodies against human TNF-α, IL-6 and IFN-γ. Weight recovery was monitored until day 28. […] Thus, cytokine blockade provides a second effective mechanism to resolve the toxicity of this potent approach.

[3] = Raji model, 24 hours post-rimiducid

CC[C@H](C(=O)N1CCCC[C@H]1C(=O)O[C@H](CCc1ccc(OC)c(OC)c1)c1cccc(OCC(=O)NCCNC(=O)COc2cccc([C@@H](CCc3ccc(OC)c(OC)c3)OC(=O)[C@@H]3CCCCN3C(=O)[C@@H](CC)c3cc(OC)c(OC)c(OC)c3)c2)c1)c1cc(OC)c(OC)c(OC)c1 (relative stereo) [rimiducid, 2-Piperidinecarboxylic acid, 1-[(2S)-1-oxo-2-(3,4,5-trimethoxyphenyl)butyl]-, 1,2-ethanediylbis[imino(2-oxo-2,1-ethanediyl)oxy-3,1-phenylene[(1R)-3-(3,4-dimethoxyphenyl)propylidene]] ester, [2S-[1(R*),2R*[S*[S*[1(R*),2R*]]]]]-(9CI)]
safety in healthy volunteers [1]: proven safe
serum concentrations of hTNF-α ([2]; Daudi model, 0.5 mg/kg single i.p.): significantly reduced
CAR-T BLI after rimiducid titration ([2]; Raji model, 5-5×10^−5 mg/kg single i.p.): reduced in a rimiducid dose-dependent manner
serum cytokine levels (IL-6, IFN-γ, TNF-α) after rimiducid titration [2, 3]: decreased serum cytokine levels
serum levels of human cytokines (IFN-γ, IL-6) after rimiducid [2, 3]: reverted to baseline levels
resolution of CAR-related toxicity (weight loss) ([2]; Raji model, iC9-CD19.ζ-MC T cells, single 5 mg/kg i.p., 5 mg/kg): promptly resolved toxicity; also recorded: successfully resolved
resolution of cachexia ([2]; THP-1 model, iC9-CD123.ζ-MC T cells, without affecting tumor control): could be resolved
